For data set [1], the system named is human Molt 4 tumor xenograft. Kind of data set: Human leukemia Molt 4 cells xenograft animal model. The format is in vivo, mice. The note with it: 1.14 μg/g intraperitoneal, 33 days. As for the experimental part:
FIG. 3(A) is a diagram showing the effect of compound 3 on the tumor growth in an in vivo human Molt 4 tumor xenograft animal model. Tumor-bearing nude mice were intraperitoneally injected with solvent control (DMSO) and compound 3 (1.14 μg/g) for 33 days. […] Control, n=8; compound 3, n=7.
FIG. 3(B) is a diagram showing the effect of compound 3 on the body weight in the in vivo human Molt 4 tumor xenograft animal model. Tumor-bearing nude mice were intraperitoneally injected with solvent control (DMSO) and compound 3 (1.14 μg/g) for 33 days. The body weight were measured every other day, and the results are expressed as mean±SD. Control, n=8; compound 3, n=7.
Human Leukemia Molt 4 Cells Xenograft Animal Model:
Six-week-old male immunodeficient athymic mice were purchased from the National Laboratory Animal and Research Center (Taipei, Taiwan). All of the animals were maintained under standard laboratory conditions (temperature 24-26° C., 12-12 hour dark-light circle) and fed with a laboratory diet and water. Molt 4 cells (1×10^6) resuspended in 0.2 mL PBS were injected subcutaneously (s.c.) into the right flank of each mouse, and tumor growth was monitored every day. […] Tumor size was measured three times a week using calipers and tumor volumes were calculated according to the standard formula: width^2×length/2.

The next data set deals with T1, human topoisomerase II (Homo sapiens, UniProt P11388).
T1 construct: purchased Topogen
The experiment in a line: Assay of topoisomerase II catalytic inhibitors and poisons (cell-free pHOT1 DNA relaxation/cleavage). The data set is classed as biochemical. As for the experimental part: Assay of Topoisomerase II Catalytic Inhibitors and Poisons:
Reactions were terminated by adding 2 μL of 10% SDS to facilitate trapping the enzyme in a cleavage complex, followed by the addition of 2.5 μL of proteinase K (50 μg/mL) to digest the bound protein (incubated at 37° C. for 15 minutes) and finally by adding 0.1 volume of the sample loading dye. The DNA products were analyzed via electrophoresis through vertical 2% agarose gels at 2 voltage/cm in 0.5×TAE buffer. Gels were stained with ethidium bromide (EtBr) and photographed using an Eagle Eye II system (Stratagene, La Jolla, Calif., U.S.A.). The quantitative analysis of the DNA Topo II activity was performed.

For the next data set, the system named is Molt 4. The text has this: The cell lines were obtained from the American Type Culture Collection (ATCC, Manassas, Va., U.S.A.) or the Japanese Collection of Research Biosources (JCRB) Cell Bank (Japan). […] Antibodies against XIAP, NFκB (p65), GADD, CDK 4, HSF 1, ATF 6 and β-tubulin were obtained from Santa Cruz Biotechnology (Santa Cruz, Calif., U.S.A.). The Hybond ECL transfer membrane and ECL Western blotting detection kits were obtained from Amersham Life Sciences (Amersham, U.K.).
Several cancer cell lines including leukemia K562, Molt 4, and HL 60 cells, prostate cancer LNCaP cells, colon cancer DLD-1 cells and breast cancer T-47D cells were used to evaluate the antiproliferative activity (referring to Table 2).
It is known that mitochondria are critical intracellular loci of ROS production and ROS exposure can lead to the […] opening. The antioxidant, microsomal GST1, in the inner mitochondrial membrane can interact with the mitochondrial permeability transition (MPT) regulator proteins, such as ANT and/or CypD, to form a MPT pore contributing to mitochondria-mediated cell death. In addition, mitochondrial homeostasis of tumor cells is regulated by an organelle-specific Hsp90 chaperone network.

The subject of the next data set is γH2AX. The experiment in a line: Western blot of γH2AX expression in Molt 4 cells. To be noted: Molt 4 cells, 0.0625, 0.125 and 0.25 μg/mL, 24 hours. The format is cell-based, human. As for the experimental part: Protein expression was analyzed with Western blotting. GAPDH was used as the loading control.
In order to confirm whether the DNA damage-induced by the marine terpenoids of the present invention involved the inhibition of Topo II activity, a cell-free DNA cleavage assay using an enzyme-mediated negatively supercoiled pHOT1 plasmid DNA was applied. […] These marine terpenoids suppressed Topo II activity, resulting in the inhibition of supercoiled DNA relaxation in a dose-dependent manner (FIG. 2(A)). […] To determine whether the apoptotic mechanism of compounds 1 to 3 affects γH2AX (as a biomarker of DNA damage) induction, Western blot analysis was employed to examine the activation of γH2AX.
(A western blot detects proteins with antibodies after separation by electrophoresis.)

Data set [2] concerns Molt 4 cells. Kind of data set: JC-1 staining, mitochondrial membrane potential disruption. The data set is classed as cell-based, human. To be noted: Molt 4 cells, 0.0625, 0.125 and 0.25 μg/mL, 24 hours, dose-dependent. As for the experimental part: Determination of Reactive Oxygen Species (ROS) Generation, Calcium Accumulation, and Matrix Metalloproteinase (MMP) Disruption:
MMP disruption, calcium accumulation and ROS generation were detected with the JC-1 cationic dye (5 μg/mL), the fluorescent calcium indicator (Fluo 3, […]) and the carboxy derivative of fluorescein (carboxy-H2DCFDA, […]), respectively. In brief, the treated cells were labeled with a specific fluorescent dye for 30 minutes. After labeling, cells were washed with PBS and resuspended in PBS at a concentration of 1×10^6 cells/mL before analysis via flow cytometry.

In data set [3] the test system is Molt 4 cells. The experiment in a line: Annexin V/PI apoptosis assay. The format is cell-based, human. The note with it: Molt 4 cells, 0.0625, 0.125 and 0.25 μg/mL, 24 hours, dose-dependent. As for the experimental part: Annexin V/Propidium Iodide (PI) Apoptosis Assay:
The externalization of phosphatidylserine (PS) and membrane integrity were quantified using an annexin V-fluorescein isothiocyanate (annexin V-FITC) staining kit. In brief, 10^6 cells were grown in 35 mm diameter plates and were labeled with annexin V-FITC (10 μg/mL) and PI (20 μg/mL) prior to harvesting. After labeling, all plates were washed with a binding buffer and harvested. Cells were resuspended in the binding buffer at a concentration of 2×10^5 cells/mL before analysis by flow cytometer FACS-Calibur (Becton-Dickinson, San Jose, Calif., U.S.A.) and CellQuest software. Approximately 10,000 cells were counted for each determination.

T1 sequence (P11388 whole entry): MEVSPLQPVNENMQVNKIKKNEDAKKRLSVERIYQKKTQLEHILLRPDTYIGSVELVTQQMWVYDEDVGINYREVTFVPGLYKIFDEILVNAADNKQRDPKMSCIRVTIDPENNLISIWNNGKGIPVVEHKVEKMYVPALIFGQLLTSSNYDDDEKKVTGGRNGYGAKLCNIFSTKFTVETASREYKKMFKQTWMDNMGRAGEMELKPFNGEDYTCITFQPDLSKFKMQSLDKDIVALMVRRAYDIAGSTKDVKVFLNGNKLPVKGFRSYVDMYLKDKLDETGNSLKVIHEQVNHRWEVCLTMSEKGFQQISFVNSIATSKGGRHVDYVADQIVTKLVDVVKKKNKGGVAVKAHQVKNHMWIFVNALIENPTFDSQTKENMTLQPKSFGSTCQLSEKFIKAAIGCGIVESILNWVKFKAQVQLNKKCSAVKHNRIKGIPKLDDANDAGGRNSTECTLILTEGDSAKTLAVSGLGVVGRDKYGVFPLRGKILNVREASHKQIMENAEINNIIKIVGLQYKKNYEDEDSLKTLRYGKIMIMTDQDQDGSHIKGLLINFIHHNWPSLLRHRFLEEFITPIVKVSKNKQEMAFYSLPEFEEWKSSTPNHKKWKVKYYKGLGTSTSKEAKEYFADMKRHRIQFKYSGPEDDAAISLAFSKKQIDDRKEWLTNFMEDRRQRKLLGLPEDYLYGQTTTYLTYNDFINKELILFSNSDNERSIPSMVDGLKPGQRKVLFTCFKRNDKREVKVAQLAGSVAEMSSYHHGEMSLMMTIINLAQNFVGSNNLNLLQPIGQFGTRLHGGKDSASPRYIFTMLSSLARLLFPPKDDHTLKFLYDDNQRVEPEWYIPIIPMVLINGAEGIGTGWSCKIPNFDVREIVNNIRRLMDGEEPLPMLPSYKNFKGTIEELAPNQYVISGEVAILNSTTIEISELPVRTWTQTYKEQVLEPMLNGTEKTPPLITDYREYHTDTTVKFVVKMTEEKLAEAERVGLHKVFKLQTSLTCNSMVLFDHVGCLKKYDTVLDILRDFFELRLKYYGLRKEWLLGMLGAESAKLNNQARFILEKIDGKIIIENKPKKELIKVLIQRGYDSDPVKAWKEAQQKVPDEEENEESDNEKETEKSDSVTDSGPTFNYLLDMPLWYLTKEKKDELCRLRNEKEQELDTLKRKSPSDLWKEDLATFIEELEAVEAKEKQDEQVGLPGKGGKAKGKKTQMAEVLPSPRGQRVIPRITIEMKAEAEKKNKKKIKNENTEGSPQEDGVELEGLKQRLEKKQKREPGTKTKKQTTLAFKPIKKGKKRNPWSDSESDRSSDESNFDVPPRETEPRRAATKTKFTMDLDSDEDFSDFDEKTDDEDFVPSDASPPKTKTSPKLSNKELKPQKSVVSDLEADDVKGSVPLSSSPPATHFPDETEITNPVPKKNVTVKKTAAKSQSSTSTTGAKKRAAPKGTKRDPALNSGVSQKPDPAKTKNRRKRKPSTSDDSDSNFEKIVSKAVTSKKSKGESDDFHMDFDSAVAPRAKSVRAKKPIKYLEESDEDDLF

One may read the inhibition as the relative decrease from the control value, in per cent. On to `CC(C)=CCC/C(C)=C/CC/C(C)=C/CC/C(C)=C/CC1=CC(=O)C=CC1=O` [Compound 3, 2-tetraprenil-1,4-benzochinone], for which the “Mice body weights versus control” value in data set [1] was “no significant difference”. On human topoisomerase II (0.08 μg/mL), the inhibition at 0.08 µg/mL was determined as 7%. For the same compound, the inhibition at 0.312 µg/mL on human topoisomerase II (0.312 μg/mL) stood at 13%. This compound also had an inhibition at 1.25 µg/mL at human topoisomerase II (1.25 μg/mL) of 28%. In addition, 5 µg/mL produced 90% inhibition against human topoisomerase II (5 μg/mL). In addition, on human topoisomerase II (20 μg/mL), testing at 20 µg/mL gave an inhibition of 98%. In addition, at human topoisomerase II (cell-free system), the “Topo II activity IC50” value turned out to be 0.43 µg/mL. Also, the “Cytotoxic effect IC50, Molt 4” value in the data set on Molt 4 is 0.34 µg/mL. Also, in the data set with γH2AX, the “Expression of γH2AX (DNA damage biomarker)” value was “activation of DNA damage was not observed”. The “Mitochondrial membrane potential (JC-1)” value in the data set on Molt 4 cells [2] is “disruption in mitochondrial membrane potential”. For the same compound, in the data set with Molt 4 cells [3], the “Apoptotic population (annexin-V/PI)” value is “increase in the apoptotic population”.
Broadly, the IC50 is the concentration that inhibits the measured activity by half. As for `CC[C@@H](O)CC(=O)O[C@@H]1C[C@@H]2[C@@]3(C)CCC[C@](C)(CC)[C@@H]3CC[C@@]2(C)[C@@H]2CC=C(C(C)=O)[C@H](C=O)[C@@]12C` (relative stereo) [Compound 2, 12β-(3′β-hydroxypentanoyloxy)-20,24-dimethyl-24-oxo-scalara-16-en-25-al], the IC50 at human topoisomerase II (cell-free system, read-out: Topo II activity IC50 (converted)) is 719 nM. Moreover, the “Cytotoxic effect IC50, Molt 4” value in the data set with Molt 4 amounted to 0.30 µg/mL. In the data set on γH2AX, the “Expression of γH2AX (DNA damage biomarker)” value is reported as “significantly enhanced the expression of γH2AX in a dose-dependent manner”. Further, the “Mitochondrial membrane potential (JC-1)” value in the data set on Molt 4 cells [2] is “disruption in mitochondrial membrane potential”. For the same compound, the “Apoptotic population (annexin-V/PI)” value with Molt 4 cells [3] was “increase in the apoptotic population”.
